The target in the assay is T1, BTK (Homo sapiens, UniProt Q06187).
T1 construct: endogenous in cells; host or cells: Ramos cells
The assay can be described thus: BTK cell degradation in Ramos cells (total BTK ELISA). The following applies: 16 h incubation, FastScan total BTK ELISA. In kind it is cell-based. The gist of the method:
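Ramos cells were treated for 16 h with compounds (7 doses, 5-fold dilution series, 0.1% DMSO). Total BTK in cell lysates was quantified by sandwich ELISA with TMB read-out at 450 nm.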
On the technique in general: ELISA stands for enzyme-linked immunosorbent assay.

The structures appear in SMILES notation.

T1 sequence (Q06187 whole entry): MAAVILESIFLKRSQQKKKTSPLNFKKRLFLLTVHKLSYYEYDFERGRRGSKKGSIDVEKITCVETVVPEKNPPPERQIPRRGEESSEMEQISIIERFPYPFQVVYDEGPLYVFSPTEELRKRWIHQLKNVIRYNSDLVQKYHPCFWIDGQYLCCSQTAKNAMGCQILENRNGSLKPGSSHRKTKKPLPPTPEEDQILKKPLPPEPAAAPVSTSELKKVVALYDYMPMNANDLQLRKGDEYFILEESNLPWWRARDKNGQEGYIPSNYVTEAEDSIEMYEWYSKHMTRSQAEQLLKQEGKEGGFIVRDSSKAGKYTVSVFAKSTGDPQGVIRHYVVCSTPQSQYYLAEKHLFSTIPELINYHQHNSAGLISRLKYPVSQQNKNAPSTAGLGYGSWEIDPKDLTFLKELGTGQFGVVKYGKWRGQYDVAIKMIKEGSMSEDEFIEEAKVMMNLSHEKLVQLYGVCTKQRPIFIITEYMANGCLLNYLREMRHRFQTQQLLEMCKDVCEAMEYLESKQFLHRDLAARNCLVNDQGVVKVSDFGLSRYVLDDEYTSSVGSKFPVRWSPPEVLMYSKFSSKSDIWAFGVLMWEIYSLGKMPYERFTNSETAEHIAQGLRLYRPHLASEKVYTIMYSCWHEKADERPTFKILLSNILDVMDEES

As usually defined, the DC50 is the concentration giving 50% degradation. Compound `NC(=O)c1c(-c2ccc(Oc3ccccc3)cc2)nn2c1NCC[C@H]2C1CCN(C(=O)CCN2CCC(N3CCN(c4ccc5c(c4)C(=O)N(C4CCC(=O)NC4=O)C5=O)CC3)CC2)CC1` (stereo partly drawn) [Example 156, (7S)-7-(1-(3-(4-(4-(2-(2,6-dioxopiperidin-3-yl)-1,3-dioxoisoindolin-5-yl)piperazin-1-yl)piperidin-1-yl)propanoyl)piperidin-4-yl)-2-(4-phenoxyphenyl)-4,5,6,7-tetrahydropyrazolo[1,5-a]pyrimidine-3-carboxamide] returned a DC50 of 1680 nM.
